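Protocol summary: plate cells (96-well), add compound at 5 concentrations, incubate 48 h, interpolate endpoints linearly. Here, GI50 denotes the concentration required for 50% inhibition of growth.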 Active and inactive are the calls of the source. Rule as the data show it: active = GI50 up to about 1.1 µM and inactive = higher.
How the values were obtained:
Assay in all cases: DTP human tumour cell line panel, 48 h
COLO 205 = tested on: COLO 205
SF-268 = tested on: SF-268
K562 = tested on: K562
SF-539 = tested on: SF-539
SF-295 = tested on: SF-295
DLD-1 = tested on: DLD-1
SK-OV-3 = tested on: SK-OV-3
HCT-116 = tested on: HCT-116
SNB-75 = tested on: SNB-75
SK-MEL-2 = tested on: SK-MEL-2
NCI-H460 = tested on: NCI-H460
UACC-257 = tested on: UACC-257
OVCAR-3 = tested on: OVCAR-3
XF498 = tested on: XF498
786-0 = tested on: 786-0
NCI-H226 = tested on: NCI-H226
SNB-78 = tested on: SNB-78
SN12C = tested on: SN12C
NCI-H23 = tested on: NCI-H23
EKVX = tested on: EKVX
HCT-15 = tested on: HCT-15
KM-20L2 = tested on: KM-20L2
SK-MEL-5 = tested on: SK-MEL-5
SK-MEL-28 = tested on: SK-MEL-28
HOP-62 = tested on: HOP-62
NCI-H522 = tested on: NCI-H522
SNB-19 = tested on: SNB-19
OVCAR-8 = tested on: OVCAR-8
HL-60 = tested on: HL-60
M14 = tested on: M14
RXF 393 = tested on: RXF 393
Malme-3M = tested on: Malme-3M
MOLT-4 = tested on: MOLT-4
OVCAR-4 = tested on: OVCAR-4
SR = tested on: SR
IGROV-1 = tested on: IGROV-1
UACC-62 = tested on: UACC-62
TK-10 = tested on: TK-10
SW-620 = tested on: SW-620
DMS-273 = tested on: DMS-273
LOX IMVI = tested on: LOX IMVI
HCC 2998 = tested on: HCC 2998
ACHN = tested on: ACHN
LXFL 529 = tested on: LXFL 529
HOP-92 = tested on: HOP-92
UO-31 = tested on: UO-31
HT-29 = tested on: HT-29
A549 = tested on: A549
M19-MEL = tested on: M19-MEL
U-251 = tested on: U-251
CCRF-CEM = tested on: CCRF-CEM
KM12 = tested on: KM12
CAKI-1 = tested on: CAKI-1
OVCAR-5 = tested on: OVCAR-5
DMS-114 = tested on: DMS-114
RPMI-8226 = tested on: RPMI-8226
A498 = tested on: A498
MCF7 = tested on: MCF7
HOP-18 = tested on: HOP-18
NCI/ADR-RES = tested on: NCI/ADR-RES

CCCC(C)n1c(C)nc2c1C(=O)c1ccccc1C2=O (stereo not given)
GI50 (COLO 205): 23.3 µM (inactive)
GI50 (SF-268): 19.6 µM (inactive)
GI50 (K562): 8.57 µM (inactive)
GI50 (SF-539): 13 µM (inactive)
GI50 (SF-295): 23.7 µM (inactive)
GI50 (DLD-1): 8.43 µM (inactive)
GI50 (SK-OV-3): 42.7 µM (inactive)
GI50 (HCT-116): 5.52 µM (inactive)
GI50 (SNB-75): 19.5 µM (inactive)
GI50 (SK-MEL-2): 20.7 µM (inactive)
GI50 (NCI-H460): 4.6 µM (inactive)
GI50 (UACC-257): 22.4 µM (inactive)
GI50 (OVCAR-3): 25.9 µM (inactive)
GI50 (XF498): 20.8 µM (inactive)
GI50 (786-0): 19.9 µM (inactive)
GI50 (NCI-H226): 34.4 µM (inactive)
GI50 (SNB-78): 21.9 µM (inactive)
GI50 (SN12C): 29.9 µM (inactive)
GI50 (NCI-H23): 15.6 µM (inactive)
GI50 (EKVX): 43.6 µM (inactive)
GI50 (HCT-15): 5.97 µM
GI50 (KM-20L2): 18.9 µM (inactive)
GI50 (SK-MEL-5): 13.3 µM (inactive)
GI50 (SK-MEL-28): 33.7 µM (inactive)
GI50 (HOP-62): 20 µM (inactive)
GI50 (NCI-H522): 23.1 µM (inactive)
GI50 (SNB-19): 37 µM (inactive)
GI50 (OVCAR-8): 22.8 µM (inactive)
GI50 (HL-60): 33.2 µM (inactive)
GI50 (M14): 34.6 µM (inactive)
GI50 (RXF 393): 20 µM (inactive)
GI50 (Malme-3M): 23.8 µM (inactive)
GI50 (MOLT-4): 18.5 µM (inactive)
GI50 (OVCAR-4): 36.1 µM (inactive)
GI50 (SR): > 100 µM (inactive)
GI50 (IGROV-1): 37.4 µM (inactive)
GI50 (UACC-62): 6.78 µM (inactive)
GI50 (TK-10): 31 µM (inactive)
GI50 (SW-620): 37.7 µM (inactive)
GI50 (DMS-273): 7.24 µM (inactive)
GI50 (LOX IMVI): 8.71 µM (inactive)
GI50 (HCC 2998): 40.4 µM (inactive)
GI50 (ACHN): 27.8 µM (inactive)
GI50 (LXFL 529): 12.7 µM (inactive)
GI50 (HOP-92): 16.7 µM (inactive)
GI50 (UO-31): 24.7 µM (inactive)
GI50 (HT-29): 17.3 µM (inactive)
GI50 (A549): 21 µM (inactive)
GI50 (M19-MEL): 12.6 µM (inactive)
GI50 (U-251): 12.2 µM (inactive)
GI50 (CCRF-CEM): 30.3 µM (inactive)
GI50 (KM12): 22.9 µM (inactive)

O=C(Cl)c1cc([N+](=O)[O-])cc([N+](=O)[O-])c1
GI50 (COLO 205): > 100 µM (inactive)
GI50 (SF-268): > 100 µM (inactive)
GI50 (K562): > 100 µM (inactive)
GI50 (CAKI-1): > 100 µM (inactive)
GI50 (OVCAR-5): > 100 µM (inactive)
GI50 (SF-539): > 100 µM (inactive)
GI50 (SF-295): > 100 µM (inactive)
GI50 (DLD-1): > 100 µM (inactive)
GI50 (SK-OV-3): > 100 µM (inactive)
GI50 (HCT-116): > 100 µM (inactive)
GI50 (SNB-75): > 100 µM (inactive)
GI50 (SK-MEL-2): > 100 µM (inactive)
GI50 (NCI-H460): > 100 µM (inactive)
GI50 (UACC-257): > 100 µM (inactive)
GI50 (XF498): > 100 µM (inactive)
GI50 (786-0): > 100 µM (inactive)
GI50 (NCI-H226): > 100 µM (inactive)
GI50 (SNB-78): > 100 µM (inactive)
GI50 (NCI-H23): > 100 µM (inactive)
GI50 (EKVX): > 100 µM (inactive)
GI50 (HCT-15): > 100 µM
GI50 (SK-MEL-5): > 100 µM (inactive)
GI50 (SK-MEL-28): > 100 µM (inactive)
GI50 (HOP-62): > 100 µM (inactive)
GI50 (NCI-H522): > 100 µM (inactive)
GI50 (SNB-19): > 100 µM (inactive)
GI50 (HL-60): > 100 µM (inactive)
GI50 (M14): > 100 µM (inactive)
GI50 (Malme-3M): > 100 µM (inactive)
GI50 (MOLT-4): > 100 µM (inactive)
GI50 (OVCAR-4): > 100 µM (inactive)
GI50 (SR): > 100 µM (inactive)
GI50 (IGROV-1): > 100 µM (inactive)
GI50 (UACC-62): > 100 µM (inactive)
GI50 (TK-10): > 100 µM (inactive)
GI50 (SW-620): > 100 µM (inactive)
GI50 (DMS-273): > 100 µM (inactive)
GI50 (LOX IMVI): > 100 µM (inactive)
GI50 (HCC 2998): > 100 µM (inactive)
GI50 (ACHN): > 100 µM (inactive)
GI50 (LXFL 529): > 100 µM (inactive)
GI50 (DMS-114): > 100 µM (inactive)
GI50 (RPMI-8226): > 100 µM (inactive)
GI50 (HOP-92): > 100 µM (inactive)
GI50 (UO-31): > 100 µM (inactive)
GI50 (HT-29): > 100 µM (inactive)
GI50 (A549): > 100 µM (inactive)
GI50 (M19-MEL): > 100 µM (inactive)
GI50 (U-251): > 100 µM (inactive)
GI50 (CCRF-CEM): > 100 µM (inactive)
GI50 (KM12): > 100 µM (inactive)

CC(=O)OC1CCC2(C)C(CCC3C2CCC2(C)C(c4ccc(=O)oc4)C(OC(C)=O)CC32O)C1 (stereo not given)
GI50 (COLO 205): 0.0288 µM (active)
GI50 (SF-268): 0.0144 µM (active)
GI50 (K562): 0.0161 µM (active)
GI50 (CAKI-1): 0.0151 µM (active)
GI50 (OVCAR-5): 0.0397 µM (active)
GI50 (SF-539): 0.0125 µM (active)
GI50 (SF-295): 0.016 µM (active)
GI50 (DLD-1): 0.0155 µM (active)
GI50 (A498): 0.0156 µM (active)
GI50 (SK-OV-3): 0.0292 µM (active)
GI50 (HCT-116): 0.0157 µM (active)
GI50 (SNB-75): 0.0183 µM (active)
GI50 (SK-MEL-2): 0.0258 µM (active)
GI50 (NCI-H460): 0.0147 µM (active)
GI50 (UACC-257): 0.023 µM (active)
GI50 (OVCAR-3): 0.0161 µM (active)
GI50 (XF498): 0.0244 µM (active)
GI50 (NCI-H226): 0.0356 µM (active)
GI50 (SNB-78): 0.0164 µM (active)
GI50 (SN12C): 0.0162 µM (active)
GI50 (NCI-H23): 0.0154 µM (active)
GI50 (EKVX): 0.0168 µM (active)
GI50 (MCF7): 0.0164 µM (active)
GI50 (HCT-15): 0.0136 µM
GI50 (KM-20L2): 0.0188 µM (active)
GI50 (SK-MEL-5): 0.0164 µM (active)
GI50 (SK-MEL-28): 0.0277 µM (active)
GI50 (HOP-62): 0.015 µM (active)
GI50 (HOP-18): 0.0125 µM (active)
GI50 (NCI-H522): 0.016 µM (active)
GI50 (NCI/ADR-RES): 0.0191 µM (active)
GI50 (SNB-19): 0.0293 µM (active)
GI50 (OVCAR-8): 0.0171 µM (active)
GI50 (HL-60): 0.0154 µM (active)
GI50 (RXF 393): 0.0125 µM (active)
GI50 (Malme-3M): 0.0125 µM (active)
GI50 (MOLT-4): 0.0163 µM (active)
GI50 (OVCAR-4): 0.0125 µM (active)
GI50 (IGROV-1): 0.0173 µM (active)
GI50 (UACC-62): 0.0169 µM (active)
GI50 (SW-620): 0.0148 µM (active)
GI50 (DMS-273): 0.0125 µM (active)
GI50 (LOX IMVI): 0.0176 µM (active)
GI50 (HCC 2998): 0.0269 µM (active)
GI50 (RPMI-8226): 0.0148 µM (active)
GI50 (HOP-92): 0.0195 µM (active)
GI50 (UO-31): 0.0156 µM (active)
GI50 (HT-29): 0.0263 µM (active)
GI50 (A549): 0.0135 µM (active)
GI50 (U-251): 0.0184 µM (active)
GI50 (CCRF-CEM): 0.0151 µM (active)
GI50 (KM12): 0.0172 µM (active)
